These results are taken from publication PMC12778052 (Science Advances, 2026).

In one data set the target is T1, human Nectin-4 (Homo sapiens, UniProt Q96NY8).
T1 construct: purchased R&D Systems 2659-N4-050
T1 sequence (Q96NY8 32-349 limits assumed): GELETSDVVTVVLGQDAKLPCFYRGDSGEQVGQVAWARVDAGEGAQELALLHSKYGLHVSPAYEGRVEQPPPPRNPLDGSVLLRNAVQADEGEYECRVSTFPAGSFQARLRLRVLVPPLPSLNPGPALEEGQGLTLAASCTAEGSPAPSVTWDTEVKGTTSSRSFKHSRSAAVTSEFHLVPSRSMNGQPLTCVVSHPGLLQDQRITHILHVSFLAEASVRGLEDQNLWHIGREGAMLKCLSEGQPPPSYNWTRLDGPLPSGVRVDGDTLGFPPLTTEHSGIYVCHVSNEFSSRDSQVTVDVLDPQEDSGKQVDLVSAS
Kind of data set: SPR affinity for recombinant human Nectin-4. The data set is classed as binding. Particulars: human Nectin-4. The protocol:
The affinity of AJ647 for human and mouse Nectin-4 recombinant proteins was evaluated by SPR. The experiments were conducted using a Biacore T200 instrument with a CM5 chip at 25°C. The ligands used were His-tagged human Nectin-4 (R&D Systems, catalog no. 2659-N4-050, 44 kDa, 0.2 mg/ml stock concentration) and mouse Nectin-4 proteins (R&D Systems, catalog no. 3116-N4-050, 45 kDa, 0.2 mg/ml stock concentration), which were immobilized onto the CM5 chip. AJ647 (3057.5 Da, 10 mM stock concentration) was used as the analyte, which flowed over the ligand-immobilized surface. FC2 and FC4 was used as the experimental flow cell, while FC1 and FC3 served as the reference. An anti-His antibody (1 mg/ml stock concentration) was immobilized on all flow cells using standard amine coupling chemistry. […] Human Nectin-4 was captured onto FC2 at a level of ~600 RU, with a 1:20 dilution and 10 μg/ml diluted concentration in PBS-P. Mouse Nectin-4 was captured onto FC4 at a level of 600 RU, with a 1:20 dilution and 10 μg/ml diluted concentration in PBS-P. The theoretical maximum response (Rmax ) values were calculated on the basis of the captured response values (table S1), assuming a 1:1 interaction mechanism. […] All association and dissociation kinetics were evaluated by 1:1 kinetics model fitting.

In a further data set the test system is UC9 cells. Briefly: In vitro binding of [^68Ga]AJ647 to UC9 cells. In kind it is cell-based. Particulars: 1 × 10^6 cells, ~1 μCi, 30 min, 4°C, means ± SD, n = 4. The protocol:
In vitro binding of [^68Ga]AJ647 to T24, SCaBER, RT112, UC9, UC14, and HT1376 cells was determined by incubating 1 × 10^6 cells with ~1 μCi of [^68Ga]AJ647 for 30 min at 4°C. After incubation, cells were washed three times with ice-cold PBS containing 0.1% Tween 20 and counted on an automated gamma counter. All cell radioactivity uptake studies were performed in quadruplicate for each cell line and repeated three times.

For data set [1] the following is noted: 1.25 mg/kg dose level; cited from earlier work. The source says:
Focusing on EV, an FDA-approved ADC targeting Nectin-4 ([11]), we aimed to test whether PET-measured target engagement (TE) could better define the relationships among dose, exposure, and therapeutic response. […] Adjustments in the dosage were more ...

A further data set has as its system HT1376 tumors. Kind of data set: EV effect on Nectin-4 temporal PD, [^68Ga]AJ647 PET. In kind it is in vivo, NSG mice. The protocol: Mice with tumor volumes of ~100 to 150 mm^3 were injected with ~200 μCi [7.4 megabecquerels (MBq)] of [^68Ga]AJ647 in […] of 5% ethanol in saline intravenously and anesthetized under 2.5% isoflurane. PET-computed tomography (CT) images were acquired at 60 min after radiotracer injection at 5 min per bed in an ARGUS small-animal PET/CT scanner (Sedecal, Madrid, Spain) as described previously (n = 3, unless otherwise noted). PET-MR images were acquired on a simultaneous 7T Bruker PET-MR scanner. Dynamic imaging was conducted to evaluate the PK of [^68Ga]AJ647. [^68Ga]AJ647 was injected (with the help of a catheter) after mice were anesthetized under 2.5% isoflurane on the equipment bed. All PET data were reconstructed using the two-dimensional (2D) ordered subset expectation maximization algorithm and corrected for radioactive decay and dead times. The SUV values were calculated by finding %IA on the basis of a calibration factor obtained from a known radioactive quantity and then normalizing by mice weight. Amide software was used to derive SUV values by drawing the region of interest to closely fit tumors. In particular, MR images were used to identify tumor boundaries manually; these boundaries were transferred to co-registered PET images to derive SUVs. This process was repeated for each mouse individually in a blinded fashion. For the change in accessible Nectin-4 following EV treatment, ΔSUV was calculated by subtracting baseline (pre-treatment) uptake from posttherapy uptake of [^68Ga]AJ647. TE was quantified by normalizing this change by initial SUV in the same subject controls. Image fusion, visualization, and 3D rendering were accomplished using Amira 2020.3.1 (FEI, Hillsboro, OR). The dose-time PD of Nectin-4 following EV treatment was studied at doses of 6, 9, and 15 mg/kg. Experiments involving PET imaging were performed first. Male NSG mice were inoculated with 4 million HT1376 cells at day 0. On day 23 (average tumor volume, 150 ± 30 mm^3), mice were randomized to receive either saline or a single dose of EV (6, 9, or 15 mg/kg) intravenously (n = 3 for each dose and n = 2 for saline). Mice (n = 2) from each dose group and saline group were imaged on days 1, 3, and 6 following EV treatment. Once PET imaging results were analyzed, ex vivo distribution experiment was performed with n = 16 to 18 for each dose and n = 10 for saline. Treated mice (n = 8 or 9 per dose per time point) along with saline controls (n = 5 per time point) were euthanized on days 1 and 6. Biodistribution studies were performed at 60 min after [^68Ga]AJ647 injection, as described above. PD metrics were defined as follows Accessible Nectin−4=SUVpost/SUVpre∗100 Nectin−4 TE=(SUVpre−SUVpost)/SUVpre∗100

As a reminder, the koff is the first-order rate constant of dissociation. In the case of `CSCC[C@@H]1NC(=O)[C@@H]2CSCCC(=O)N3CN(CN(C3)C(=O)CCSC[C@H](NC(=O)CCOCCOCCOCCOCCOCCOCCOCCOCCOCCOCCOCCOCCNC(=O)CN3CCN(CC(=O)O)CCN(CC(=O)O)CC3)C(=O)N3CCC[C@H]3C(=O)N[C@@H](Cc3cccc4ccccc34)C(=O)N[C@@H](CC(=O)O)C(=O)N2)C(=O)CCSC[C@@H](C(N)=O)NC(=O)[C@H](Cc2c[nH]c3ccccc23)NC(=O)[C@@H]2C[C@@H](O)CN2C(=O)[C@@H]2CCCN2C(=O)[C@H]([C@@H](C)O)NC(=O)[C@H](CO)NC(=O)[C@H](Cc2c[nH]c3ccccc23)NC(=O)[C@@H](CC(=O)O)NC(=O)[C@H](CCCCNC(=N)N)NC1=O` [[^68Ga]AJ647, metal not drawn], the koff at human Nectin-4 amounted to 0.0106 ± 0.00159 s⁻¹. Moreover, the “[^68Ga]AJ647 uptake” value in the data set on UC9 cells is 2.2 ± 0.48 %IA.

In the case of enfortumab vedotin [EV], the “patients needing dosage adjustments” value in data set [1] is “more than 32%”. Moreover, the “Nectin-4 engagement by PET” value in the data set on HT1376 tumors (day 1, EV 6, 9 or 15 mg/kg single dose) was “full occupancy of Nectin-4”; with HT1376 tumors (day 3, EV 6 mg/kg) it was “increase in [^68Ga]AJ647 uptake”; with HT1376 tumors (day 3, EV 9 and 15 mg/kg), “low tracer uptake”; in the data set with HT1376 tumors (day 6, EV 6 mg/kg) it was “significant increase in [^68Ga]AJ647 uptake”; in the data set with HT1376 tumors (day 6, EV 9 mg/kg), “moderate increase in uptake”; in the data set with HT1376 tumors (day 6, EV 15 mg/kg) it was “minimal tracer uptake”.
